Broadly, the MIC is the lowest concentration that inhibits growth of the organism. Lower therefore signals greater potency.

Converted amounts (≈) assume the structure as drawn.

The first test relates to Escherichia coli. The test can be described thus: Tested in vivo for the antibacterial activity against Escherichia coli after oral administration in mice. It counts as functional. Conditions: read-out: PD50.
As for `CN1CCc2c([n+]([O-])c3ccccc3[n+]2[O-])C1=O`, the ED50 was 8.53 mg/kg.

On to `COC(=O)N/N=C/c1c[n+]([O-])c2ccccc2[n+]1[O-]` [CARBADOX], for which the ED50 was determined as 5.3 mg/kg.

The next test relates to Escherichia coli. The test can be described thus: Tested in vivo for the antibacterial activity against Escherichia coli after sc administration in mice. It counts as functional. Conditions: read-out: PD50.
For the compound `CN1CCc2c([n+]([O-])c3ccccc3[n+]2[O-])C1=O`, the ED50 was determined as 6.39 mg/kg.

Turning to `COC(=O)N/N=C/c1c[n+]([O-])c2ccccc2[n+]1[O-]` [CARBADOX], the ED50 amounted to 6.44 mg/kg.

Another test has as its system Escherichia coli. The test can be described thus: Tested in vitro for the minimum inhibitory concentration (MIC) against Escherichia coli.
Details: not given
Format: functional.
Take `O=C1c2c([n+]([O-])c3ccccc3[n+]2[O-])CCN1CCN1CCCCC1`: the lowest concentration to inhibit growth (MIC) was 3.12 µg/mL (≈ 9.11 µM).

`CN1CCc2c([n+]([O-])c3ccccc3[n+]2[O-])C1=O` yielded an MIC of 0.78 µg/mL (≈ 3.18 µM).

`COCCN1CCc2c([n+]([O-])c3ccccc3[n+]2[O-])C1=O` showed a minimum inhibitory concentration (MIC) of 1.56 µg/mL (≈ 5.39 µM). Against the preceding compound, the MIC is about 2-fold higher.

With `CCN1CCc2c([n+]([O-])c3ccccc3[n+]2[O-])C1=O`, the MIC came to 3.12 µg/mL (≈ 12 µM).

`O=C1c2c([n+]([O-])c3ccccc3[n+]2[O-])CCN1CCO` showed an MIC of 12.5 µg/mL (≈ 45.4 µM).

The compound `O=C1NCCc2c1[n+]([O-])c1ccccc1[n+]2[O-]` registered an MIC of 1.56 µg/mL (≈ 6.75 µM).

With `COC(=O)N/N=C/c1c[n+]([O-])c2ccccc2[n+]1[O-]` [CARBADOX], inhibition of growth (MIC) required 0.39 µg/mL (≈ 1.49 µM).

As to `C=CCN1CCc2c([n+]([O-])c3ccccc3[n+]2[O-])C1=O`, the lowest concentration to inhibit growth (MIC) was 3.12 µg/mL (≈ 11.5 µM).

In turn, `O=C1c2c([n+]([O-])c3ccccc3[n+]2[O-])CCN1C1CCCCC1` had an MIC of 50 µg/mL (≈ 160 µM).

The next test concerns Pasteurella multocida. As to the kind of experiment: Tested in vivo for the antibacterial activity against Pasteurella multocida after oral administration in mice. It counts as functional. Conditions: read-out: PD50.
With `CN1CCc2c([n+]([O-])c3ccccc3[n+]2[O-])C1=O`, the ED50 was determined as 4.7 mg/kg.

Consider `COC(=O)N/N=C/c1c[n+]([O-])c2ccccc2[n+]1[O-]` [CARBADOX], for which the ED50 came to 6.14 mg/kg.

Another test deals with Pasteurella multocida. As to the kind of experiment: Tested in vivo for the antibacterial activity against Pasteurella multocida after sc administration in mice. It counts as functional. Conditions: read-out: PD50.
For `CN1CCc2c([n+]([O-])c3ccccc3[n+]2[O-])C1=O`, the ED50 came to 3.8 mg/kg.

On to `COC(=O)N/N=C/c1c[n+]([O-])c2ccccc2[n+]1[O-]` [CARBADOX], for which the ED50 was determined as 4.05 mg/kg.

The test system of the next test is Salmonella enterica. The test can be described thus: Tested in vivo for the antibacterial activity against Salmonella choleraesuis after sc administration in mice. Format: functional. Conditions: read-out: PD50.
With `CN1CCc2c([n+]([O-])c3ccccc3[n+]2[O-])C1=O`, the ED50 was determined as 2.96 mg/kg.

In the case of `COC(=O)N/N=C/c1c[n+]([O-])c2ccccc2[n+]1[O-]` [CARBADOX], the ED50 was 5.44 mg/kg.

The subject of another test is Salmonella enterica. As to the kind of experiment: Tested in vivo for the antibacterial activity against Salmonella choleraesuis after oral administration of 25 mg/kg in mice. It counts as functional.
Details: not given
Consider `O=C1c2c([n+]([O-])c3ccccc3[n+]2[O-])CCN1CCN1CCCCC1`, for which the Protection is 0%.

In turn, `CN1CCc2c([n+]([O-])c3ccccc3[n+]2[O-])C1=O` returned a Protection of 100%.

Turning to `COCCN1CCc2c([n+]([O-])c3ccccc3[n+]2[O-])C1=O`, the Protection amounted to 60%.

The compound `CCN1CCc2c([n+]([O-])c3ccccc3[n+]2[O-])C1=O` returned a Protection of 50%.

For the compound `O=C1c2c([n+]([O-])c3ccccc3[n+]2[O-])CCN1CCO`, the Protection stood at 0%.

The compound `O=C1NCCc2c1[n+]([O-])c1ccccc1[n+]2[O-]` gave a Protection of 0%.

In turn, `COC(=O)N/N=C/c1c[n+]([O-])c2ccccc2[n+]1[O-]` [CARBADOX] gave a Protection of 100%.

`C=CCN1CCc2c([n+]([O-])c3ccccc3[n+]2[O-])C1=O`: the Protection is 0%.

Take `O=C1c2c([n+]([O-])c3ccccc3[n+]2[O-])CCN1C1CCCCC1`: the Protection is 0%.

The next test deals with Salmonella enterica. As to the kind of experiment: Tested in vivo for the antibacterial activity against Salmonella choleraesuis after sc administration of 25 mg/kg in mice. Conditions: route subcutaneous. It counts as functional.
Take `O=C1c2c([n+]([O-])c3ccccc3[n+]2[O-])CCN1CCN1CCCCC1`: the Protection came to 30%.

Turning to `CN1CCc2c([n+]([O-])c3ccccc3[n+]2[O-])C1=O`, the Protection is reported as 100%.

`COCCN1CCc2c([n+]([O-])c3ccccc3[n+]2[O-])C1=O` showed a Protection of 90%.

Compound `CCN1CCc2c([n+]([O-])c3ccccc3[n+]2[O-])C1=O` showed a Protection of 70%.

`O=C1c2c([n+]([O-])c3ccccc3[n+]2[O-])CCN1CCO` had a Protection of 0%.

In turn, `O=C1NCCc2c1[n+]([O-])c1ccccc1[n+]2[O-]` showed a Protection of 80%.

Turning to `COC(=O)N/N=C/c1c[n+]([O-])c2ccccc2[n+]1[O-]` [CARBADOX], the Protection was found to be 100%.

`C=CCN1CCc2c([n+]([O-])c3ccccc3[n+]2[O-])C1=O` displayed a Protection of 30%.

Compound `O=C1c2c([n+]([O-])c3ccccc3[n+]2[O-])CCN1C1CCCCC1` came in with a Protection of 0%.

For another test, the system named is Salmonella enterica. As to the kind of experiment: Tested in vitro for the minimum inhibitory concentration (MIC) against Salmonella choleraesuis. Format: functional.
Details: not given
For the compound `O=C1c2c([n+]([O-])c3ccccc3[n+]2[O-])CCN1CCN1CCCCC1`, it took 1.56 µg/mL (≈ 4.56 µM) to inhibit growth (MIC).

As to `CN1CCc2c([n+]([O-])c3ccccc3[n+]2[O-])C1=O`, the MIC was determined as 1.56 µg/mL (≈ 6.36 µM).

As to `COCCN1CCc2c([n+]([O-])c3ccccc3[n+]2[O-])C1=O`, the MIC is 3.12 µg/mL (≈ 10.8 µM).

`CCN1CCc2c([n+]([O-])c3ccccc3[n+]2[O-])C1=O` registered an MIC of 1.56 µg/mL (≈ 6.02 µM).

`O=C1c2c([n+]([O-])c3ccccc3[n+]2[O-])CCN1CCO` had an MIC of 12.5 µg/mL (≈ 45.4 µM).

For the compound `O=C1NCCc2c1[n+]([O-])c1ccccc1[n+]2[O-]`, 1.56 µg/mL (≈ 6.75 µM) was the least that counted as inhibitory (MIC). This MIC lies about 8-fold lower than the previous one.

Compound `COC(=O)N/N=C/c1c[n+]([O-])c2ccccc2[n+]1[O-]` [CARBADOX] registered an MIC of 0.19 µg/mL (≈ 0.725 µM).

`C=CCN1CCc2c([n+]([O-])c3ccccc3[n+]2[O-])C1=O` gave an MIC of 1.56 µg/mL (≈ 5.75 µM).

In turn, `O=C1c2c([n+]([O-])c3ccccc3[n+]2[O-])CCN1C1CCCCC1` returned an MIC of 50 µg/mL (≈ 160 µM).

Another test concerns Streptococcus pyogenes. The test can be described thus: Tested in vitro for the minimum inhibitory concentration (MIC) against Strep. pyogenes. It counts as functional.
Details: not given
Take `O=C1c2c([n+]([O-])c3ccccc3[n+]2[O-])CCN1CCN1CCCCC1`: the MIC is under 0.39 µg/mL.

Compound `CN1CCc2c([n+]([O-])c3ccccc3[n+]2[O-])C1=O` registered an MIC of 1.56 µg/mL (≈ 6.36 µM).

`COCCN1CCc2c([n+]([O-])c3ccccc3[n+]2[O-])C1=O` registered an MIC of 0.78 µg/mL (≈ 2.7 µM).

Consider `CCN1CCc2c([n+]([O-])c3ccccc3[n+]2[O-])C1=O`, for which the MIC turned out to be 1.56 µg/mL (≈ 6.02 µM).

For `O=C1c2c([n+]([O-])c3ccccc3[n+]2[O-])CCN1CCO`, the MIC was 6.25 µg/mL (≈ 22.7 µM).

As for `O=C1NCCc2c1[n+]([O-])c1ccccc1[n+]2[O-]`, 1.56 µg/mL (≈ 6.75 µM) was the least that counted as inhibitory (MIC).

As for `COC(=O)N/N=C/c1c[n+]([O-])c2ccccc2[n+]1[O-]` [CARBADOX], the lowest concentration to inhibit growth (MIC) was 0.19 µg/mL (≈ 0.725 µM).

Regarding `C=CCN1CCc2c([n+]([O-])c3ccccc3[n+]2[O-])C1=O`, the MIC stood at 0.78 µg/mL (≈ 2.88 µM). This MIC is about 4.1-fold higher than that of the compound before.

As to `O=C1c2c([n+]([O-])c3ccccc3[n+]2[O-])CCN1C1CCCCC1`, the MIC was 3.12 µg/mL (≈ 9.96 µM).

In the next test the test system is Pasteurella multocida. As to the kind of experiment: Tested in vitro for the minimum inhibitory concentration (MIC) against Pasteurella multocida. It counts as functional.
Details: not given
As for `O=C1c2c([n+]([O-])c3ccccc3[n+]2[O-])CCN1CCN1CCCCC1`, the MIC was found to be 25 µg/mL (≈ 73 µM).

`CN1CCc2c([n+]([O-])c3ccccc3[n+]2[O-])C1=O`: 1.56 µg/mL (≈ 6.36 µM) was the least that counted as inhibitory (MIC). This MIC is about 16-fold lower than that of the compound before.

The compound `COCCN1CCc2c([n+]([O-])c3ccccc3[n+]2[O-])C1=O` came in with an MIC of 3.12 µg/mL (≈ 10.8 µM). Against the preceding compound, the MIC is about 2-fold higher.

`CCN1CCc2c([n+]([O-])c3ccccc3[n+]2[O-])C1=O` had an MIC of 6.25 µg/mL (≈ 24.1 µM).

`O=C1c2c([n+]([O-])c3ccccc3[n+]2[O-])CCN1CCO` yielded an MIC of 12.5 µg/mL (≈ 45.4 µM).

Regarding `O=C1NCCc2c1[n+]([O-])c1ccccc1[n+]2[O-]`, the MIC was under 0.39 µg/mL.

On to `COC(=O)N/N=C/c1c[n+]([O-])c2ccccc2[n+]1[O-]` [CARBADOX], for which the MIC came to 0.78 µg/mL (≈ 2.97 µM).

`C=CCN1CCc2c([n+]([O-])c3ccccc3[n+]2[O-])C1=O` came in with an MIC of 6.25 µg/mL (≈ 23 µM).

Compound `O=C1c2c([n+]([O-])c3ccccc3[n+]2[O-])CCN1C1CCCCC1` yielded an MIC of 25 µg/mL (≈ 79.8 µM).

A further test concerns Salmonella enterica. As to the kind of experiment: Tested in vivo for the antibacterial activity against Salmonella choleraesuis after oral administration in mice. It counts as functional. Conditions: read-out: PD50.
As for `CN1CCc2c([n+]([O-])c3ccccc3[n+]2[O-])C1=O`, the ED50 was 5.1 mg/kg.

As for `COC(=O)N/N=C/c1c[n+]([O-])c2ccccc2[n+]1[O-]` [CARBADOX], the ED50 was 4.47 mg/kg.

Values taken from ChEMBL document CHEMBL1122100, “Pyridoquinoxaline N-oxides. 2. Synthesis and antibacterial activity of tricyclic lactams” (1982).
